This passage reports MIC and inhibition in vivo results from ChEMBL document CHEMBL3868618, “Synthesis and biological evaluation of chalcone derivatives containing aminoguanidine or acylhydrazone moieties” (Bioorg Med Chem Lett, 2016).

The test system of test [1] is Escherichia coli. Description: Antibacterial activity against Escherichia coli 1924 measured after 24 hrs by two-fold serial dilution method. The format is functional. The following applies: Escherichia coli, 1924, 24 h.
In another test the test system is Streptococcus mutans. The experiment in a line: Antibacterial activity against Streptococcus mutans 3065 measured after 24 hrs by two-fold serial dilution method. The format is functional. The following applies: Streptococcus mutans, 3065, 24 h.
Test [2] deals with Staphylococcus aureus. Description: Antibacterial activity against quinolone-resistant Staphylococcus aureus 3505 measured after 24 hrs by two-fold serial dilution method. The format is functional. As to conditions: Staphylococcus aureus, 3505, 24 h.
Test [3] has as its system Staphylococcus aureus. Description: Antibacterial activity against Staphylococcus aureus 209 measured after 24 hrs by two-fold serial dilution method. The format is functional. The following applies: Staphylococcus aureus, 209, 24 h.
The subject of test [4] is Staphylococcus aureus. Description: Antibacterial activity against quinolone-resistant Staphylococcus aureus 3519 measured after 24 hrs by two-fold serial dilution method. It counts as functional. The following applies: Staphylococcus aureus, 3519, 24 h.
A further test has as its system Mus musculus. The experiment in a line: Antiinflammatory activity in mouse assessed as inhibition of xylene-induced ear edema at 100 mg/kg, ip administered 30 mins before xylene challenge measured after 30 mins relative to DMSO-control. The format is functional.
Another test has as its system Pseudomonas aeruginosa. Description: Antibacterial activity against Pseudomonas aeruginosa 2742 measured after 24 hrs by two-fold serial dilution method. The following applies: Pseudomonas aeruginosa, 2742, 24 h. The format is functional.
In test [5] the test system is Staphylococcus aureus. Description: Antibacterial activity against Staphylococcus aureus 4220 measured after 24 hrs by two-fold serial dilution method. The format is functional. The following applies: Staphylococcus aureus, 4220, 24 h.
Another test deals with Candida albicans. The experiment in a line: Antifungal activity against Candida albicans 7535 measured after 24 hrs by two-fold serial dilution method. It counts as functional. As to conditions: Candida albicans, 7535, 24 h.
Test [6] deals with Staphylococcus aureus. The experiment in a line: Antibacterial activity against Staphylococcus aureus 503 measured after 24 hrs by two-fold serial dilution method. It counts as functional. As to conditions: Staphylococcus aureus, 503, 24 h.
Test [7] has as its system Staphylococcus aureus. The experiment in a line: Antibacterial activity against methicillin-resistant Staphylococcus aureus 3167 measured after 24 hrs by two-fold serial dilution method. It counts as functional. As to conditions: Staphylococcus aureus, 3167, 24 h.
Test [8] concerns Staphylococcus aureus. Description: Antibacterial activity against methicillin-resistant Staphylococcus aureus 3506 measured after 24 hrs by two-fold serial dilution method. The format is functional. The following applies: Staphylococcus aureus, 3506, 24 h.
Test [9] deals with Escherichia coli. Description: Antibacterial activity against Escherichia coli 1356 measured after 24 hrs by two-fold serial dilution method. The format is functional. The following applies: Escherichia coli, 1356, 24 h.
The next test deals with Salmonella typhimurium. The experiment in a line: Antibacterial activity against Salmonella typhimurium 1926 measured after 24 hrs by two-fold serial dilution method. It counts as functional, Salmonella enterica subsp. enterica serovar Typhimurium. As to conditions: Salmonella enterica, 1926, 24 h.

Converted amounts (≈) assume the structure as drawn.

What is called MIC is the lowest concentration found to suppress growth. As usually defined, the inhibition in vivo is the relative decrease from the control value, in per cent. As for `N=C(N)N/N=C/c1ccc(/C=C/C(=O)c2ccc(Br)cc2)cc1`, the MIC against Escherichia coli [1] was determined as 2 µg/mL (≈ 5.39 µM); with Streptococcus mutans, 4 µg/mL (≈ 10.8 µM); with Staphylococcus aureus [2], 4 µg/mL (≈ 10.8 µM); with Staphylococcus aureus [3], 4 µg/mL (≈ 10.8 µM); against Staphylococcus aureus [4], 16 µg/mL (≈ 43.1 µM); with Pseudomonas aeruginosa, 2 µg/mL (≈ 5.39 µM). Moreover, the MIC against Staphylococcus aureus [5] was 2 µg/mL (≈ 5.39 µM); against Candida albicans, 2 µg/mL (≈ 5.39 µM); in the test on Staphylococcus aureus [6] it was 4 µg/mL (≈ 10.8 µM); against Staphylococcus aureus [7], 8 µg/mL (≈ 21.5 µM); in the test with Staphylococcus aureus [8] it was 2 µg/mL (≈ 5.39 µM); against Escherichia coli [9], 32 µg/mL (≈ 86.2 µM). This molecule also showed an MIC in the test on Salmonella typhimurium of 2 µg/mL (≈ 5.39 µM). In addition, in the test with Mus musculus, the inhibition in vivo at 100 mg/kg was 68.9%.

Turning to `O=C(N/N=C/c1ccc(/C=C/C(=O)c2ccccc2Cl)cc1)c1ccccc1`, the MIC was > 64 µg/mL in the test on Escherichia coli [1]; > 64 µg/mL in the test with Streptococcus mutans; 64 µg/mL (≈ 165 µM) in the test with Staphylococcus aureus [2]; 64 µg/mL (≈ 165 µM) with Staphylococcus aureus [3]; 64 µg/mL (≈ 165 µM) against Staphylococcus aureus [4]; > 64 µg/mL in the test on Pseudomonas aeruginosa. For the same molecule, the MIC in the test on Staphylococcus aureus [5] was > 64 µg/mL; in the test on Candida albicans, > 64 µg/mL; in the test on Staphylococcus aureus [6], 64 µg/mL (≈ 165 µM); with Staphylococcus aureus [7], 64 µg/mL (≈ 165 µM); against Staphylococcus aureus [8] it was 64 µg/mL (≈ 165 µM); against Escherichia coli [9], > 64 µg/mL. Also, in the test with Salmonella typhimurium, the MIC was > 64 µg/mL.

For `Cc1ccc(C(=O)/C=C/c2ccc(/C=N/NC(=N)N)cc2)c(C)c1`, the MIC in the test on Escherichia coli [1] turned out to be 8 µg/mL (≈ 25 µM); against Streptococcus mutans it was 8 µg/mL (≈ 25 µM); in the test on Staphylococcus aureus [2] it was 8 µg/mL (≈ 25 µM); against Staphylococcus aureus [3] it was 8 µg/mL (≈ 25 µM); with Staphylococcus aureus [4] it was 8 µg/mL (≈ 25 µM); with Pseudomonas aeruginosa, 4 µg/mL (≈ 12.5 µM). Moreover, the MIC in the test on Staphylococcus aureus [5] amounted to 4 µg/mL (≈ 12.5 µM); with Candida albicans, 8 µg/mL (≈ 25 µM); with Staphylococcus aureus [6], 8 µg/mL (≈ 25 µM); in the test with Staphylococcus aureus [7], 8 µg/mL (≈ 25 µM); in the test with Staphylococcus aureus [8] it was 4 µg/mL (≈ 12.5 µM); against Escherichia coli [9], 8 µg/mL (≈ 25 µM). In the test with Salmonella typhimurium, this molecule registered an MIC of 8 µg/mL (≈ 25 µM). The inhibition in vivo at 100 mg/kg in the test on Mus musculus was determined as 64.2%.

Consider `N=C(N)N/N=C/c1ccc(/C=C/C(=O)c2ccccc2F)cc1`, for which the MIC is 8 µg/mL (≈ 25.8 µM) against Escherichia coli [1]; 8 µg/mL (≈ 25.8 µM) against Streptococcus mutans; 8 µg/mL (≈ 25.8 µM) against Staphylococcus aureus [2]; 8 µg/mL (≈ 25.8 µM) in the test on Staphylococcus aureus [3]; 8 µg/mL (≈ 25.8 µM) against Staphylococcus aureus [4]; 4 µg/mL (≈ 12.9 µM) against Pseudomonas aeruginosa. In addition, the MIC was 4 µg/mL (≈ 12.9 µM) in the test with Staphylococcus aureus [5]; 8 µg/mL (≈ 25.8 µM) with Candida albicans; 8 µg/mL (≈ 25.8 µM) with Staphylococcus aureus [6]; 8 µg/mL (≈ 25.8 µM) in the test on Staphylococcus aureus [7]; 4 µg/mL (≈ 12.9 µM) in the test with Staphylococcus aureus [8]; 16 µg/mL (≈ 51.6 µM) in the test with Escherichia coli [9]. In the test on Salmonella typhimurium, this molecule yielded an MIC of 4 µg/mL (≈ 12.9 µM). In addition, the inhibition in vivo at 100 mg/kg with Mus musculus was found to be 91.7%.

As for `O=C(N/N=C/c1ccc(/C=C/C(=O)c2ccccc2F)cc1)c1ccccc1`, the minimal inhibitory concentration (MIC) with Escherichia coli [1], in the test on Streptococcus mutans, against Staphylococcus aureus [2], with Staphylococcus aureus [3], in the test with Staphylococcus aureus [4] and in the test on Pseudomonas aeruginosa was > 64 µg/mL in each case. In addition, the MIC against Staphylococcus aureus [5] was > 64 µg/mL; against Candida albicans it was > 64 µg/mL; with Staphylococcus aureus [6], > 64 µg/mL; in the test on Staphylococcus aureus [7] it was 64 µg/mL (≈ 172 µM); with Staphylococcus aureus [8], 64 µg/mL (≈ 172 µM); with Escherichia coli [9], > 64 µg/mL. Besides, in the test with Salmonella typhimurium, the MIC is > 64 µg/mL.

`O=C(/C=C/c1ccc(/C=N/NC(=O)c2cccc(Cl)c2)cc1)c1ccc(Cl)cc1`: the MIC is 32 µg/mL (≈ 75.6 µM) with Escherichia coli [1]; > 64 µg/mL against Streptococcus mutans; 32 µg/mL (≈ 75.6 µM) against Staphylococcus aureus [2]; 32 µg/mL (≈ 75.6 µM) in the test with Staphylococcus aureus [3]; 32 µg/mL (≈ 75.6 µM) in the test with Staphylococcus aureus [4]; > 64 µg/mL in the test on Pseudomonas aeruginosa. Moreover, the MIC against Staphylococcus aureus [5] was 32 µg/mL (≈ 75.6 µM); against Candida albicans, > 64 µg/mL; in the test on Staphylococcus aureus [6], 32 µg/mL (≈ 75.6 µM); in the test with Staphylococcus aureus [7], 32 µg/mL (≈ 75.6 µM); against Staphylococcus aureus [8], 32 µg/mL (≈ 75.6 µM); in the test on Escherichia coli [9] it was 32 µg/mL (≈ 75.6 µM). The MIC against Salmonella typhimurium is > 64 µg/mL.

As to `N=C(N)N/N=C/c1ccc(/C=C/C(=O)c2ccccc2Br)cc1`, the MIC is 8 µg/mL (≈ 21.5 µM) with Escherichia coli [1]; 8 µg/mL (≈ 21.5 µM) against Streptococcus mutans; 8 µg/mL (≈ 21.5 µM) in the test on Staphylococcus aureus [2]; 8 µg/mL (≈ 21.5 µM) with Staphylococcus aureus [3]; 16 µg/mL (≈ 43.1 µM) against Staphylococcus aureus [4]; 8 µg/mL (≈ 21.5 µM) against Pseudomonas aeruginosa. The MIC amounted to 4 µg/mL (≈ 10.8 µM) against Staphylococcus aureus [5]; 8 µg/mL (≈ 21.5 µM) with Candida albicans; 8 µg/mL (≈ 21.5 µM) in the test on Staphylococcus aureus [6]; 8 µg/mL (≈ 21.5 µM) in the test on Staphylococcus aureus [7]; 8 µg/mL (≈ 21.5 µM) in the test with Staphylococcus aureus [8]; 16 µg/mL (≈ 43.1 µM) against Escherichia coli [9]. It took 4 µg/mL (≈ 10.8 µM) to inhibit growth against Salmonella typhimurium (MIC). The inhibition in vivo at 100 mg/kg in the test on Mus musculus was 78.3%.

On to `O=C(N/N=C/c1ccc(/C=C/C(=O)c2ccccc2Br)cc1)c1ccccc1`, for which the MIC against Escherichia coli [1], against Streptococcus mutans, in the test with Staphylococcus aureus [2], in the test on Staphylococcus aureus [3], against Staphylococcus aureus [4] and with Pseudomonas aeruginosa was > 64 µg/mL in each case. The MIC in the test on Staphylococcus aureus [5], against Candida albicans, against Staphylococcus aureus [6], against Staphylococcus aureus [7], against Staphylococcus aureus [8] and with Escherichia coli [9] was > 64 µg/mL throughout. In addition, the MIC with Salmonella typhimurium is > 64 µg/mL.

For `N=C(N)N/N=C/c1ccc(/C=C/C(=O)c2ccccc2Cl)cc1`, the MIC against Escherichia coli [1] was found to be 8 µg/mL (≈ 24.5 µM); in the test with Streptococcus mutans, 8 µg/mL (≈ 24.5 µM); against Staphylococcus aureus [2], 8 µg/mL (≈ 24.5 µM); with Staphylococcus aureus [3] it was 8 µg/mL (≈ 24.5 µM); with Staphylococcus aureus [4], 16 µg/mL (≈ 49 µM); in the test with Pseudomonas aeruginosa it was 8 µg/mL (≈ 24.5 µM). The MIC was determined as 8 µg/mL (≈ 24.5 µM) with Staphylococcus aureus [5]; 8 µg/mL (≈ 24.5 µM) in the test on Candida albicans; 8 µg/mL (≈ 24.5 µM) against Staphylococcus aureus [6]; 8 µg/mL (≈ 24.5 µM) in the test with Staphylococcus aureus [7]; 8 µg/mL (≈ 24.5 µM) with Staphylococcus aureus [8]; 16 µg/mL (≈ 49 µM) in the test with Escherichia coli [9]. Moreover, the MIC with Salmonella typhimurium was determined as 8 µg/mL (≈ 24.5 µM). Besides, in the test on Mus musculus, the inhibition in vivo at 100 mg/kg stood at 84.1%.
